Measurements taken from ChEMBL document CHEMBL2424534, “Design and synthesis of non-TZD peroxisome proliferator-activated receptor (PPAR) modulator” (2013).

Legend:
3T3-L1 [1] = test: Induction of adipogenesis in mouse 3T3L1 cells at 20 ug/ml by microscopic analysis relative to rosiglitazone; assay type: functional
[2] = target: T1, Peroxisome proliferator-activated receptor gamma (Homo sapiens) (UniProt P37231); test: Binding affinity to PPARgamma (unknown origin) at 10 uM by Polarscreen competitor assay relative to rosiglitazone
T1 sequence (whole entry): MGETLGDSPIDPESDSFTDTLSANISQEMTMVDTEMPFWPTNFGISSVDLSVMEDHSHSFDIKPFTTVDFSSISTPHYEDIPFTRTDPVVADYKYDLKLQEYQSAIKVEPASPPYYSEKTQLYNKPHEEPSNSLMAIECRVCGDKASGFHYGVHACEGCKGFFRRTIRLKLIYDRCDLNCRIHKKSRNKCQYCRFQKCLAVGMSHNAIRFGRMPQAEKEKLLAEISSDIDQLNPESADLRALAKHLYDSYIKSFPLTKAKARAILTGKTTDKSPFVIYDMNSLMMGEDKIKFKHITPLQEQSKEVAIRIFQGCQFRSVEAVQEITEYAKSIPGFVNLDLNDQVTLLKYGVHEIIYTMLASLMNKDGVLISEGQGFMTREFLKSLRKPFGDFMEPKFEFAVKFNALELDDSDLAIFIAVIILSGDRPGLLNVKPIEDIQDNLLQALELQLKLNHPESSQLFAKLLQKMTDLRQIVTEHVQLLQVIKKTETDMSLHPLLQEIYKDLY

[3] = target: T1, Peroxisome proliferator-activated receptor gamma (Homo sapiens); test: Agonist activity at PPARgamma (unknown origin) transfected in HEK293 cells assessed as transcriptional activity at 10 uM relative to rosiglitazone; assay type: cell-based
3T3-L1 [4] = test: Induction of insulin-stimulated [14C]deoxy-glucose uptake in mouse 3T3L1 cells pretreated at 10 uM for 24 hrs before insulin stimulation by scintillation counting relative to vehicle-treated control; assay type: functional

| SMILES | Emax at 20 µg/mL (3T3-L1 [1]) | Imax [2] | Emax [3] | fold change (FC) (3T3-L1 [4]) |
| --- | --- | --- | --- | --- |
| O=S(=O)(Nc1cnc(OC2CCN(c3ccccc3)CC2)c(Cl)c1)c1ccc(-c2ccccn2)s1 | 15% | 76% | 13% | 0.93 |
| COc1ccc(S(=O)(=O)Nc2cnc(OC3CCN(c4ccccc4)CC3)c(Cl)c2)cc1 | 30% | 47% | 15% | 1.12 |
| Cc1ccccc1S(=O)(=O)Nc1cnc(OC2CCN(c3ccccc3)CC2)c(Cl)c1 | 22% | 72% | 12% | 0.97 |
| O=S(=O)(Nc1cnc(OC2CCN(c3ccccc3)CC2)c(Cl)c1)c1ccc(F)c(Cl)c1 | 20% | 79% | 10% | 0.98 |
| N#Cc1ccc(S(=O)(=O)Nc2cnc(OC3CCN(c4ccccc4)CC3)c(Cl)c2)cc1 | 20% | 37% | 11% | 1.07 |
| CN(CCOc1ncc(NS(=O)(=O)c2ccc(Cl)cc2Cl)cc1Cl)c1nc2ccccc2o1 | 22% | 82% | 16% | 1.12 |
| O=S(=O)(Nc1cnc(OC2CCN(c3ccccc3)CC2)c(Cl)c1)c1ccc(F)cc1F | 21% | 78% | 12% | 1.12 |
| COc1ccc(S(=O)(=O)Nc2cnc(OC3CCN(c4ccccc4)CC3)c(Cl)c2)c(OC)c1 | 20% | 51% | 17% | 1.44 |
| O=S(=O)(Nc1cnc(OC2CCN(c3ccccc3)CC2)c(Cl)c1)c1ccc(C(F)(F)F)cc1 | 20% | 98% | 14% | 0.99 |
| O=S(=O)(Nc1cnc(OC2CCN(c3ccccc3)CC2)c(Cl)c1)c1ccc(Cl)cc1Cl | 18% | 79% | 14% | 1.26 |
| CN(CCOc1ccc(NS(=O)(=O)c2ccc(Cl)c(Cl)c2)cn1)c1nc2ccccc2o1 | 20% | 78% | 14% | 1.02 |
